Measured values: PMC10216180, “Dopamine Receptor Ligand Selectivity—An In Silico/In Vitro Insight” (Biomedicines, 2023)
“Also recorded” adds a separate entry of the source. Where two headings read alike, the source gives them in different places. Marks after values point to notes of the source that are not given here.

What was measured:
D1R [1] = settings: radio-ligand binding, cited from earlier work
D3R [2] = settings: radio-ligand binding, cited from earlier work
D2R [3] = settings: radio-ligand binding, cited from earlier work
D2R [4] = molecular target: T1, D2R (Homo sapiens, UniProt P14416); settings: 10 µM, n = 4, normalized to the control; cited from earlier work
T1 construct: expressed in transfected cells; host or cells: D2R carrier cells (not described here)

D3R [5] = molecular target: T2, D3R (Homo sapiens, UniProt P35462); assay: HTRF competitive binding screening (NDF) at D3R carrier cells; settings: 10 µM, n = 4, fluorescence decrease normalized to the control
Method: (§1) All HTRF assays were performed using an HTRF-compatible plate reader (model Tecan Spark (Tecan Group, Männedorf, Switzerland)). The respective settings were specifically modified and optimized for the determination of D2R ligand-binding affinities. Binding affinities were determined using the same settings for measurements with D1R and D3R carrier cells. […] Fluorophores were excited at 320 nm. A dichroic 510 mirror was used, while lag and integration times of 100 and 400 µs were applied, respectively. Flashes were set to 75. Electronic gain was automatically optimized, while the z-position was optimized based on the well with the highest expected signal. […] The first plate was used to determine the gain and the z-position. Subsequently, the determined values were set manually for the second plate to enable direct comparison between the different plates.
(§2) The cells used for the subsequent screening and detailed investigation of D1R and D3R ligands were acquired from PerkinElmer/cisbio (Waltham, MA, USA; Tag-lite Dopamine D1 or D3a-labeled Cells, ready-to-use (transformed and labeled), 200 tests; C1TT1D1 and C1TT1D3A, respectively). The cells were stored in liquid nitrogen until further use. Fluorescent-labelled ligands (Dopamine D2 Receptor red antagonist Fluorescent Ligand (L0002RED), stored at −20 °C and Dopamine D1 Receptor green antagonist (L0031GRE), stored at −20 °C), assay buffer (5Xconcentrate Tag-lite Buffer (TLB), 100 mL, stored at +4 °C; LABMED), and 96-well plates (HTRF 96-well low-volume white plate; 66PL96005) required for the in vitro assay were also acquired from PerkinElmer/cisbio. The assay was conducted according to the standard operation protocol (SOP) available from PerkinElmer/cisbio. The 96-well plates were incubated at room temperature for 2 h. The 96-well plates were read as described in Section 2.10. The respective concentrations of the dilution series were performed in triplicates. In total, Kd determination was performed twice.
(§3) The investigated compounds were taken from a previous pharmacophore-based virtual screening study described in Zell et al.. The activities of all compounds were investigated via a competitive binding (in comparison with a fluorescence-labeled ligand) of the respective compounds at D1R/D3R, utilizing an HTRF assay using a screening concentration of 10 µM.

D2R [6] = molecular target: T1, D2R; set-up: method as in PMID 35889317; settings: n = 6, ± SD; values from previous experiments; cited from earlier work
D2R [7] = molecular target: T1, D2R; assay: HTRF Ki determination at D2R; assay type: binding; settings: for Selectivity D1R/D2R (Ki fold-difference): Ki assumed ≥100 µM where n.d.
Method: as §1
The characterization of the D2R carrier cells is detailed in [42].
(§4) The Ki was determined in duplicates following the SOP available from PerkinElmer/cisbio and as described in Section 2.10.
(§5) Saturation binding curves were processed and visualized in GraphPad Prism 8 (Nonlinear regression (curve fit), One site—Fit logIC50 was performed using GraphPad Prism version 8.2.1 for Windows, GraphPad Software, San Diego. CA, USA). Molecular docking was performed in GOLD 5.8.0 (CCDC, Cambridge, United Kingdom). […] Two-dimensional structures of all shown compounds were generated using ChemDraw version 19.0 (PerkinElmer, Waltham, MA, USA).

D3R [8] = molecular target: T2, D3R; assay: HTRF Ki determination at D3R; assay type: binding; settings: for Selectivity D1R/D3R (Ki fold-difference) / Selectivity D2R/D3R (Ki fold-difference): Ki assumed ≥100 µM where n.d.
Method: as §1
The cells used for the subsequent screening and detailed investigation of D1R and D3R ligands were acquired from PerkinElmer/cisbio (Waltham, MA, USA; Tag-lite Dopamine D1 or D3a-labeled Cells, ready-to-use (transformed and labeled), 200 tests; C1TT1D1 and C1TT1D3A, respectively). The cells were stored in liquid nitrogen until further use. […] The assay was conducted according to the standard operation protocol (SOP) available from PerkinElmer/cisbio. The 96-well plates were incubated at room temperature for 2 h. The 96-well plates were read as described in Section 2.10. The respective concentrations of the dilution series were performed in triplicates. In total, Kd determination was performed twice.
as §4, §5

D1R [9] = molecular target: T3, D1R (Homo sapiens, UniProt P21728); assay: HTRF competitive binding screening (NDF) at D1R carrier cells; settings: 10 µM, n = 4, fluorescence decrease normalized to the control
Method: as §1, §2, §3

D1R [10] = molecular target: T3, D1R; assay: HTRF Ki determination at D1R; assay type: binding; settings: n = 6, ± SD; n.d. = not determinable (highest concentration 100 µM)
Method: as §1, §2, §4, §5

D3R [11] = molecular target: T2, D3R; set-up: method as in PMID 24061855, PMID 19331412; settings: R22 analogues, linker length; cited from earlier work
[12] = Table S3 D2like-selective dataset, ref ChEMBL [56,69,72-106]
[13] = Table S4 D3R-selective dataset, ref ChEMBL [53,56,62-118]
[14] = n = 6, ± SD, n.d. = not determinable (highest concentration 100 µM)

T3 sequence (P21728 whole entry): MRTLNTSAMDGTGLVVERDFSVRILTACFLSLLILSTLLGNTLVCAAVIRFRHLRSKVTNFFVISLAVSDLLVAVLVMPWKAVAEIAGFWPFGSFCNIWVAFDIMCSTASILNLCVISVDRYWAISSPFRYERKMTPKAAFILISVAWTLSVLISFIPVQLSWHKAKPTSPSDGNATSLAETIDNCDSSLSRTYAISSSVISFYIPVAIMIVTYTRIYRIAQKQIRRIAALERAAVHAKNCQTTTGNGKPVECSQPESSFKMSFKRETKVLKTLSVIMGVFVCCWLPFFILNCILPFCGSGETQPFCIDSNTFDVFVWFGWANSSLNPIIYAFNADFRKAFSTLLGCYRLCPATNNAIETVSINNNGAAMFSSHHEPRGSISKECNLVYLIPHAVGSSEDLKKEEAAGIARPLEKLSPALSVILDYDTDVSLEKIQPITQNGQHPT
T2 sequence (P35462 whole entry): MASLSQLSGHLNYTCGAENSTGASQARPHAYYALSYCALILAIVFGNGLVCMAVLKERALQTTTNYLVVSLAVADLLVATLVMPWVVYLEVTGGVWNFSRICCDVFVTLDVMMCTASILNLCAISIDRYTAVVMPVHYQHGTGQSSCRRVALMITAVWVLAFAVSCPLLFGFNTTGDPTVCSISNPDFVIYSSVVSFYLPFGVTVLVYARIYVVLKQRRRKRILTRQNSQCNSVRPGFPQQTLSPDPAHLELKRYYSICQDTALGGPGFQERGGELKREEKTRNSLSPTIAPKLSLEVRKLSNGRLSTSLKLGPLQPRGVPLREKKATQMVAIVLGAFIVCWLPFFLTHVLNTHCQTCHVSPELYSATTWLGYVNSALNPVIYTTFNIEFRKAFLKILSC
T1 sequence (P14416 whole entry): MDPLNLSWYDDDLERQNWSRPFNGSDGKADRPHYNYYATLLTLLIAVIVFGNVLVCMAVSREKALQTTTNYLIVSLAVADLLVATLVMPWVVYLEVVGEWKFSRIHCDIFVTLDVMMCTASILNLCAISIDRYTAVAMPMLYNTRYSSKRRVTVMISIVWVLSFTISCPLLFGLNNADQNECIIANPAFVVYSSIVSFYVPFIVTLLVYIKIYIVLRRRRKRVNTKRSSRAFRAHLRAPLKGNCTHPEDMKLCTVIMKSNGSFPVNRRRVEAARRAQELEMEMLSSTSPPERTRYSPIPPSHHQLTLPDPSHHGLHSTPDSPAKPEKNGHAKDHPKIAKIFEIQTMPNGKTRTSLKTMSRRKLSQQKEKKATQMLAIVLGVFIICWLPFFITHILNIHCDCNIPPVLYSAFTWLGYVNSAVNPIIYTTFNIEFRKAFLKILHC

| Compound | Normalized Decrease in Fluorescence (NDF) ± SD, D2R (D2R [4]) | Normalized Decrease in Fluorescence (NDF) ± SD, D3R (D3R [5]) | Ki (D2R [6]) [nM] | Selectivity D1R/D2R (Ki fold-difference) (D2R [7]) | Selectivity D1R/D3R (Ki fold-difference) (D3R [8]) | Selectivity D2R/D3R (Ki fold-difference) (D3R [8]) | Ki (D3R [8]; n = 6, ± SD) [nM] | Normalized Decrease in Fluorescence (NDF) ± SD, D1R (D1R [9]) | Ki (D1R [10]) [nM] | also measured |
| --- | --- | --- | --- | --- | --- | --- | --- | --- | --- | --- |
| SC144 |  |  |  |  |  |  |  |  |  | Ki (D1R [1]; [12]): 1300 nM; Ki (D3R [2]; [12]): 3 nM; Ki (D2R [3]; [12]): 38 nM |
| CN1CCN(C2Cc3ccc(O)cc3Sc3ccc(Cl)cc32)CC1 (centres unmarked) [Compound 2] | 40.41 ± 1.39 | 4.16 ± 1.08 | 5 ± 2 | 1.95 | 3.23 | 1.66 | 3 ± 1 | 5.46 ± 1.97 | 9 ± 2 |  |
| SC236 |  |  |  |  |  |  |  |  |  | Ki (D1R [1]; [13]): 1270 nM; Ki (D3R [2]; [13]): 214 nM; Ki (D2R [3]; [13]): 2320 nM |
| CN1CCc2cccc3c2[C@H]1Cc1ccc(O)c(O)c1-3 [Compound 1, apomorphine, reference compound] | 9.44 ± 5.97 | 3.82 ± 1.32 |  |  |  |  |  | 3.47 ± 1.04 |  |  |
| SC79 |  |  |  |  |  |  |  |  |  | Ki (D1R [1]; [12]): 10000 nM; Ki (D3R [2]; [12]): 6.11 nM; Ki (D2R [3]; [12]): 622 nM |
| NS(=O)(=O)c1ccc(CCNCc2ccc(-c3cc(Cl)ccc3Cl)o2)cc1 [Compound 3] | 3.99 ± 2.58 | 3.96 ± 1.10 | 4660 ± 2690 | >21.4 ^b |  | 12.2 | 380 ± 22 | 1.78 ± 1.35 |  | Ki D1R (D1R [10]): inactive |
| NC(=O)c1ccccc1OCCCN1CCN(c2ccccc2)CC1 [Compound 9] | 22.08 ± 6.62 | 3.97 ± 0.78 | 330 ± 93 | 28.6 | 395.1 | 13.8 | 24 ± 3 | 1.71 ± 0.86 | 9460 ± 1180 |  |
| O=C(NCCCCN1CCN(c2cccc(Cl)c2Cl)CC1)c1cc2ccccc2[nH]1 [C4 analogue] |  |  |  |  |  |  |  |  |  | D2R/D3R-selectivity fold-difference (D3R [11]): 45.7 |
| O[C@H](CNCCNc1ccc(C(F)(F)F)cn1)CSc1ccc(F)cc1 [Compound 7] | 10.85 ± 4.93 | 3.79 ± 0.70 | 2780 ± 1060 | 3.00 | 12.3 | 4.11 | 680 ± 68 | 1.57 ± 0.54 | 8330 ± 2170 |  |
| COc1ccccc1N1CCN(CCCCNC(=O)c2ccc(Cl)cc2)CC1 [Compound 10] | 22.89 ± 8.41 | 4.09 ± 1.07 |  | 3.91 | 1031.4 | 263.7 | 2 ± 1 | 2.59 ± 1.04 | 2380 ± 130 | Ki (D2R [7]; [14]): 610 ± 85 nM; Ki (D3R [8]): 2.3 nM |
| COc1cc(CC[C@H](C)NCc2ccccc2)ccc1O [Compound 8] | 1.10 ± 0.52 | 2.63 ± 0.52 |  |  | >43.1 ^b | >43.1 ^b | 2320 ± 920 | 1.20 ± 0.59 |  | Ki D2R (D2R [7]; [14]): inactive; also recorded: no determinable binding affinity; also recorded: no determinable binding affinities; Ki D1R (D1R [10]): inactive; also recorded: no determinable binding affinity; also recorded: no determinable binding affinities |
| CCN(CCC(=O)Nc1cccc(OC)c1)Cc1ccccc1 [Compound 5] | 15.74 ± 18.15 | 2.65 ± 0.64 | 11000 ± 4430 | 4.28 | 20.8 | 4.86 | 2250 ± 910 | 1.26 ± 0.64 | 46900 ± 27400 |  |
| O=C(CCN1CCN(c2ccccc2F)CC1)Nc1cccc(F)c1 [Compound 6] | 8.18 ± 3.62 | 4.21 ± 0.79 | 1350 ± 630 | 5.77 | 20.7 | 3.56 | 370 ± 280 | 2.15 ± 1.16 | 7760 ± 4410 |  |
| Oc1cccc(C(O)CNCc2cccc(Cl)c2Cl)c1 (centres unmarked) [Compound 4] | 0.90 ± 0.39 | 2.75 ± 0.61 |  |  | >27.2 ^b | >27.2 ^b | 3680 ± 940 | 0.90 ± 0.31 |  | Ki D2R (D2R [7]; [14]): inactive; also recorded: no determinable binding affinity; also recorded: no determinable binding affinities; Ki D1R (D1R [10]): inactive; also recorded: no determinable binding affinity; also recorded: no determinable binding affinities |
